Data reported in patent publication US9498533B2, “Drug delivery compositions and methods” (Board of Regents of the University of Nebraska, priority 2011, dated 2016).

Columns and labels:
[1] = tested on: MCF-7 human breast cancer cells; assay: In vitro cytotoxicity, MTT assay; assay type: cell-based; conditions: n = 4
Method: Cytotoxicity of DOX-loaded cl-micelles was assessed in MCF-7 cells by a standard MTT assay as described (Kim et al. (2009) J. Control Release, 138:197-204). Briefly, cells were seeded in a 96-well microtiter plates with 5,000 cells per well and allowed to adhere for 24 hours prior to the assay. Cells were exposed to various doses (0-50 μg/ml on DOX basis) of DOX alone, polymer micelles alone, and DOX-loaded cl-micelles for 24 hours at 37° C., followed by washing with PBS, and maintaining in DMEM medium with 10% FBS for additional 72 hours. 25 μl of MTT indicator dye (5 mg/ml) was added to each well and the cells were incubated for 2 hours at 37° C. in the dark. 100 μl of 50% DMF-20% SDS solution was added to each well and kept overnight at 37° C. Absorption was measured at 570 nm in a microplate reader (SpectraMax® M5, Molecular Devices Co., USA) using wells without cells as blanks. […]

[2] = carboxylic groups; cited from earlier work
[3] = tested on: breast cancer cells that overexpress HER2; assay: HER2 expression and Akt activation in breast cancer cells; assay type: cell-based

COc1cccc2c1C(=O)c1c(O)c3c(c(O)c1C2=O)C[C@@](O)(C(=O)CO)C[C@@H]3O[C@H]1C[C@H](N)[C@H](O)[C@H](C)O1.Cl [Free DOX, Doxorubicin hydrochloride]
IC50 (DOX equivalents) ([1]; MCF-7, 6 hours incubation): 0.283 ± 0.049 mg/L
IC50 (DOX equivalents) ([1]; MCF-7, 24 hours incubation): 0.046 ± 0.021 mg/L

N[C@@H](CCC(=O)O)C(=O)O [glutamic acid]
pKa [2]: ca. 4.4

C=CCNC1=C2C[C@@H](C)C[C@H](OC)[C@H](O)[C@@H](C)/C=C(\C)[C@H](OC(N)=O)[C@@H](OC)/C=C\C=C(/C)C(=O)NC(=CC1=O)C2=O [17-AAG, 17-N-allylamino-17-demethoxygeldanamycin]
Akt activation [3]: inhibited Ala activation
HER2 expression [3]: downregulation of HER2 expression
